The numbers were not newly measured in patent US11191866B2, “Dressing enabling the controlled and prolonged release of metformin” (Urgo Recherche Innovation et Developpement, priority 2016, dated 2021), which cites them from elsewhere.

SMILES strings stand for the structures.

The conditions of the data set: rats; radioactively marked, deposited on a wound in a gel.

As for `CN(C)C(=N)N=C(N)N` [metformin], the “time remaining at the local level on the wound” value is given as “remained for a very short period of time at the local level”.
